{
  "source": "patent US6365549B2",
  "about": "“Methods of blocking an ethylene response in plants using cyclopropene derivatives” (North Carolina State University, priority 1999, dated 2002)",
  "assay_type_in_all_cases": "in vivo",
  "key": {"banana [1]": {"tested_on": "banana", "assay": "Time of protection (insensitivity to ethylene) of bananas, short-chain cyclopropenes", "settings": "saturating amount (at least 10 times minimum) for 24 hours, daily challenge with 333 μl/l ethylene 12-15 hours", "protocol": "(§1) To obtain the time of protection, bananas were exposed to a saturating amount of the compound for 24 hours (this was done as above and at least 10 times the minimum protection amount was used). After exposure, bananas were removed from the jars and each day individual bananas were exposed to 333 pill of ethylene for 12-15 hours. The day the bananas responded to ethylene was recorded as the protection time."}, "banana [2]": {"tested_on": "banana", "assay": "Minimum concentration protecting bananas from 333 μl/l ethylene (short-chain cyclopropenes injected as gas)", "settings": "24 hours exposure to compound as gas in 3-liter jar, then 333 μl/l ethylene 12-15 hours, observed for ripening", "protocol": "To obtain the minimum concentration that protected bananas from 333 μl/l of ethylene, compounds described in U.S. Pat. No. 5,518,988 to Sisler et al. were applied to bananas according to the methods setforth herein. A known amount of an active compound was injected as a gas into a 3-liter jar containing a banana. The jar was sealed and the banana was removed after 24 hours. At the end of exposure, the banana was treated with 333 pill of ethylene in a 3-liter jar for 12-15 hours. It was then observed for ripening. The minimum concentration is the minimum concentration that protected the banana from 333 μl/l of ethylene. Ten microliters/liter of ethylene is usually considered to be a saturating amount."}, "banana [3]": {"tested_on": "banana", "assay": "Minimum concentration protecting bananas from 333 μl/l ethylene (compound on filter paper in 3-liter jar)", "protocol": "To obtain the minimum concentration that protected bananas from 333 μl/l of ethylene, compounds according to the present invention were applied to bananas according to the method described herein. A known amount of the active compound was placed on filter paper in a 3-liter jar to facilitate evaporation into the vapor state. The compounds were applied in an ethyl ether solution because the amount used was potentially too small to apply unless they were in solution. The amount of ether (about 10 μl in 3 l) was without effect when applied alone on a banana contained in a 3-liter jar. The jar was sealed and the banana was removed after 4 hours of exposure. At the end of exposure, the banana was treated with 333 μl/l of ethylene in a 3-liter jar for 12-15 hours. It was then observed for ripening. The minimum concentration is the concentration that protected the bananas from 333 μl/l of ethylene. Ten microliters/liter of ethylene is usually considered to be a saturating amount. This procedure was repeated for 8-, 24- and 48-hour treatment times to determine the minimum concentration of active compounds of the present invention needed to provide protection from 333 μl/l of ethylene for a given treatment time."}, "[4]": {"tested_on": "Patio variety tomato seedlings", "assay": "Tomato epinasty test, volatile gas treatment", "settings": "Gas 10 ppm; ethylene 10 ppm v/v; scale of 0 to 10, 10 complete protection, 0 no protection", "protocol": "The test procedure is designed to determine the ability of an compound according to the present invention to block the epinastic growth response induced by ethylene in tomato plants when the compound is administered either as a volatile gas or as a component of a spray solution. Treatment chambers are of an appropriate size for the test plants and are airtight. Each is fitted with a reusable septum to be used for injection of ethylene. Test plants are Patio variety tomato seedlings planted two plants per three inch square plastic pot. Volatile gas treatment entails placing two pots of Patio var. tomatoes into a polystyrene 4.8 L volume treatment chamber along with one-half (upper or lower section) of a 50×9 mm plastic Petri dish containing a Gelman filter pad. The appropriate amount of experimental compound, dissolved in 1.0 ml acetone, is pipetted onto the filter pad and the chamber immediately sealed. Four hours later ethylene gas equal to 10 ppm v/v final concentration is injected into the sealed chamber. Sixteen hours later the chambers are opened in an exhaust hood, allowed to air and the plants scored visually for the degree of protection against ethylene-induced epinasty conferred by the experimental compound when compared to ethylene treated and untreated controls on a scale of 0 to 10. A rating of 10 means complete protection. A rating of 0 means no protection from the effects of ethylene."}, "banana [5]": {"tested_on": "banana", "assay": "Time of protection (insensitivity to ethylene) of bananas, compounds of the invention", "settings": "saturating amount (at least 10 times minimum) for 24 hours, daily challenge with 333 μl/l ethylene 12-15 hours", "protocol": "as §1, with “done as described in Example 1 above and” for “done as above and”, “to 333 μl/l of ethylene” for “to 333 pill of ethylene”"}, "[6]": {"tested_on": "Patio variety tomato seedlings", "assay": "Tomato epinasty test, spray application treatment", "settings": "applied as a spray; ethylene 10 ppm v/v; scale of 0 to 10, 10 complete protection", "protocol": "The test procedure is designed to determine the ability of an compound according to the present invention to block the epinastic growth response induced by ethylene in tomato plants when the compound is administered either as a volatile gas or as a component of a spray solution.\nTreatment chambers are of an appropriate size for the test plants and are airtight. Each is fitted with a reusable septum to be used for injection of ethylene.\nTest plants are Patio variety tomato seedlings planted two plants per three inch square plastic pot.\nSpray application treatment entails using a DeVilbiss atomizer to completely cover all foliage and stems of two pots of Patio var. tomato plants with the appropriate amount of experimental compound dissolved in 10% acetone/90% water with 0.05% Silwett L-77 surfactant. Plants are air-dried in a drying hood for four hours then transferred to a 4.8 L polystyrene chamber which is sealed.\nEthylene gas equal to 10 ppm v/v final concentration is injected into the sealed chamber. Sixteen hours later the chambers are opened in an exhaust hood, allowed to air and the plants scored visually for the degree of protection against ethylene-induced epinasty conferred by the experimental compound when compared to ethylene treated and untreated controls on a scale of 0 to 10. A rating of 10 means complete protection. […]"}, "[7]": {"settings": "Table 2 (values equal the 24-hour treatment of Table 1)"}, "[8]": {"settings": "treatment time 4 hours, then 333 μl/l ethylene 12-15 hours"}, "[9]": {"settings": "treatment time 8 hours, then 333 μl/l ethylene 12-15 hours"}, "[10]": {"settings": "treatment time 24 hours, then 333 μl/l ethylene 12-15 hours"}, "[11]": {"settings": "treatment time 48 hours, then 333 μl/l ethylene 12-15 hours"}},
  "data": [
    {"molecule": "1-ethylcyclopropene [1-ethylcyclopropene (1-ECP)]", "values": [
      {"measurement": "Time of Insensitivity", "setting": "banana [1]", "value": 12, "unit": "days"},
      {"measurement": "Minimum Concentration", "setting": "banana [2]", "value": 4, "unit": "nl/l"}
    ]},
    {"molecule": "CCCCCCCCC1=CC1", "note": "[Compound 23, 1-octylcyclopropene]", "values": [
      {"measurement": "Minimum Concentration", "setting": "banana [3]; [7]", "value": 0.3, "unit": "nl/l"},
      {"measurement": "Minimum Concentration", "setting": "banana [3]; [8]", "value": 0.8, "unit": "nl/l"},
      {"measurement": "Minimum Concentration", "setting": "banana [3]; [9]", "value": 0.45, "unit": "nl/l"},
      {"measurement": "Minimum Concentration", "setting": "banana [3]; [10]", "value": 0.3, "unit": "nl/l"},
      {"measurement": "Minimum Concentration", "setting": "banana [3]; [11]", "value": 0.25, "unit": "nl/l"},
      {"measurement": "Protection against ethylene-induced epinasty, rating", "setting": "[4]", "value": 10},
      {"measurement": "Time of Insensitivity", "setting": "banana [5]", "value": 25, "unit": "days"}
    ]},
    {"molecule": "CCCCC1=CC1", "note": "[1-butylcyclopropene (1-BCP), 1-butylcyclopropene]", "values": [
      {"measurement": "Time of Insensitivity", "setting": "banana [1]", "value": 12, "unit": "days"},
      {"measurement": "Minimum Concentration", "setting": "banana [2]", "value": 3, "unit": "nl/l"}
    ]},
    {"molecule": "CCCC1=CC1", "note": "[1-propylcyclopropene (1-PCP), 1-propylcyclopropene]", "values": [
      {"measurement": "Time of Insensitivity", "setting": "banana [1]", "value": 12, "unit": "days"},
      {"measurement": "Minimum Concentration", "setting": "banana [2]", "value": 6, "unit": "nl/l"}
    ]},
    {"molecule": "1-methylcyclopropene [1-methylcyclopropene (1-MCP)]", "values": [
      {"measurement": "Time of Insensitivity", "setting": "banana [1]", "value": 12, "unit": "days"},
      {"measurement": "Minimum Concentration", "setting": "banana [2]", "value": 0.7, "unit": "nl/l"}
    ]},
    {"molecule": "CCCCCC1=CCC1", "note": "[1-pentylcyclobutene]", "values": [
      {"measurement": "Protection against ethylene-induced epinasty, rating", "setting": "[6]", "value": 10}
    ]},
    {"molecule": "CCCCCCC1=CC1", "note": "[Compound 1, 1-Hexyl-cyclopropene]", "values": [
      {"measurement": "Minimum Concentration", "setting": "banana [3]; [7]", "value": 0.4, "unit": "nl/l"},
      {"measurement": "Minimum Concentration", "setting": "banana [3]; [8]", "value": 12.0, "unit": "nl/l"},
      {"measurement": "Minimum Concentration", "setting": "banana [3]; [9]", "value": 0.8, "unit": "nl/l"},
      {"measurement": "Minimum Concentration", "setting": "banana [3]; [10]", "value": 0.4, "unit": "nl/l"},
      {"measurement": "Minimum Concentration", "setting": "banana [3]; [11]", "value": 0.3, "unit": "nl/l"},
      {"measurement": "Protection against ethylene-induced epinasty, rating", "setting": "[4]", "value": 10},
      {"measurement": "Time of Insensitivity", "setting": "banana [5]", "value": 20, "unit": "days"}
    ]},
    {"molecule": "CCCCC1=CCC1", "note": "[1-butylcyclobutene, reference compound]", "values": [
      {"measurement": "Protection against ethylene-induced epinasty, rating", "setting": "[6]", "value": 5}
    ]},
    {"molecule": "cyclopropene [cyclopropene (CP)]", "values": [
      {"measurement": "Time of Insensitivity", "setting": "banana [1]", "value": 12, "unit": "days"},
      {"measurement": "Minimum Concentration", "setting": "banana [2]", "value": 0.7, "unit": "nl/l"}
    ]}
  ]
}
